One assay deals with bromodomain. In words: at least one of the bromodomain cell assays of Example 57. It counts as cell-based. The conditions noted are these: at least one of the bromodomain cell assays described in Example 57; read-out: IC50 in at least one of the bromodomain cell assays.
Another assay has as its target BRD4-BD12 (1-477) (Homo sapiens (Human), UniProt O60885). In words: Alphascreen binding assay BRD4-BD12. The conditions noted are these: BRD4(1 2) H4; read-out: Biochemical activity (IC50 μM) BRD4(1 2) H4. In outline:
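First, compound was preincubated 1 h at room temperature with the His-tagged BRD4 protein (BD1 44-164 or tandem BD12 1-477) and acetylated H4 peptide. Next, donor and acceptor beads were added at 7.5 μg/ml final. After 30 min, AlphaScreen emission was recorded.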
On the technique in general: Bead proximity is the source of the signal in Alpha formats.

A further assay concerns MV-4-11 cells. Put plainly: Oncology cell growth assay MV-4-11 (CellTiter Glo). As to conditions: Homo sapiens, MV4-11, 72 h; MV-4-11, 3d growth; read-out: Cell activity (IC50 μM) MV-4-11 3d-Growth. It counts as cell-based. The method, boiled down: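 MV-4-11 AML cells (MLL-AF4), 3000 per well, exposed to 8-point 1:3 compound titration from 10 μM top concentration (0.2% DMSO) for 72 h. Viability by CellTiter Glo luminescence, normalized to DMSO controls; pIC50 from four-parameter curve fit.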

As for `Cc1noc(C)c1-c1cnc2c(-c3ccc(CCC(=O)O)cc3)cn(CC3CCC(F)(F)CC3)c2c1` [P-0530, 3-[4-[1-[(4,4-difluorocyclohexyl)methyl]-6-(3,5-dimethylisoxazol-4-yl)pyrrolo[3,2-b]pyridin-3-yl]phenyl]propanoic acid], the half-inhibitory concentration (IC50) was less than 10000 nM in the assay with bromodomain, less than 1 µM at BRD4-BD12 (1-477) and less than 1 µM with MV-4-11 cells.
For the compound `Cc1noc(C)c1-c1cnc2c(-c3cnn(CC(F)(F)F)c3)cn(Cc3cccnn3)c2c1` [P-0531, 3,5-dimethyl-4-[1-(pyridazin-3-ylmethyl)-3-[1-(2,2,2-trifluoroethyl)pyrazin-4-yl]pyrrolo[3,2-b]pyridin-6-yl]isoxazole], the results for the half-maximal inhibitory concentration (IC50) in the assay on bromodomain, on BRD4-BD12 (1-477) and in the assay on MV-4-11 cells were less than 10000 nM, less than 1 µM and less than 1 µM, respectively.
As for `CNC(=O)c1ccc(-n2cc(CC3CCC(F)(F)CC3)c3cc(-c4c(C)noc4C)cnc32)nc1` [P-0532, 6-[3-[(4,4-difluorocyclohexyl)methyl]-5-(3,5-dimethylisoxazol-4-yl)pyrrolo[2,3-b]pyridin-1-yl]-N-methyl-pyridine-3-carboxamide], the IC50 in the assay with bromodomain was less than 10000 nM; on BRD4-BD12 (1-477), less than 1 µM; in the assay on MV-4-11 cells, less than 1 µM.
Regarding `Cc1noc(C)c1-c1cnc2c(c1)c(CC1CCC(F)(F)CC1)cn2-c1ccc(C(=O)NC2CC2)cn1` [P-0533, N-cyclopropyl-6-[3-[(4,4-difluorocyclohexyl)methyl]-5-(3,5-dimethylisoxazol-4-yl)pyrrolo[2,3-b]pyridin-1-yl]pyridine-3-carboxamide], the 50% inhibitory concentration (IC50) with bromodomain is less than 10000 nM; at BRD4-BD12 (1-477) it was less than 1 µM; with MV-4-11 cells it was less than 1 µM.
With `CCOC(=O)c1ccc(-c2cn(CC3CCC(F)(F)CC3)c3cc(-c4c(C)noc4C)cnc23)cc1Cl` [P-0534, ethyl 2-chloro-4-[1-[(4,4-difluorocyclohexyl)methyl]-6-(3,5-dimethylisoxazol-4-yl)pyrrolo[3,2-b]pyridin-3-yl]benzoate], the 50% inhibitory concentration (IC50) is less than 10000 nM in the assay with bromodomain, less than 1 µM at BRD4-BD12 (1-477) and 1 to 10 µM with MV-4-11 cells.
As to `Cc1noc(C)c1-c1cnc2c(-c3ccc(C(=O)O)c(Cl)c3)cn(CC3CCC(F)(F)CC3)c2c1` [P-0535, 2-chloro-4-[1-[(4,4-difluorocyclohexyl)methyl]-6-(3,5-dimethylisoxazol-4-yl)pyrrolo[3,2-b]pyridin-3-yl]benzoic acid], the 50% inhibitory concentration (IC50) is less than 10000 nM in the assay on bromodomain, less than 1 µM on BRD4-BD12 (1-477) and less than 1 µM in the assay on MV-4-11 cells.
`Cc1noc(C)c1-c1cnc2c(-c3ccc(C(=O)NC4CC4)nc3)cn(CC3CCC(F)(F)CC3)c2c1` [P-0536, N-cyclopropyl-5-[1-[(4,4-difluorocyclohexyl)methyl]-6-(3,5-dimethylisoxazol-4-yl)pyrrolo[3,2-b]pyridin-3-yl]pyridine-2-carboxamide]: the IC50 in the assay with bromodomain is less than 10000 nM; at BRD4-BD12 (1-477) it was less than 1 µM; with MV-4-11 cells, less than 1 µM.
In the case of `CCOC(=O)c1ccc(-c2cn(CC3CCC(F)(F)CC3)c3cc(-c4c(C)noc4C)cnc23)cc1` [P-0537, ethyl 4-[1-[(4,4-difluorocyclohexyl)methyl]-6-(3,5-dimethylisoxazol-4-yl)pyrrolo[3,2-b]pyridin-3-yl]benzoate], the IC50 was less than 10000 nM in the assay on bromodomain, less than 1 µM on BRD4-BD12 (1-477) and less than 1 µM in the assay on MV-4-11 cells.
On to `[2H]C([2H])(C1CCC(F)(F)CC1)n1cc(-c2ccc(C(=O)OC)cc2)c2ncc(-c3c(C)noc3C)cc21` [P-0538, methyl 4-[1-[dideuterio-(4,4-difluorocyclohexyl)methyl]-6-(3,5-dimethylisoxazol-4-yl)pyrrolo[3,2-b]pyridin-3-yl]benzoate], for which the concentration for half-maximal inhibition (IC50) was less than 10000 nM with bromodomain, less than 1 µM on BRD4-BD12 (1-477) and less than 1 µM in the assay on MV-4-11 cells.
For `COC(=O)c1ccc(-c2cn(Cc3cccnn3)c3cc(-c4c(C)noc4C)cnc23)cc1` [P-0539, methyl 4-[6-(3,5-dimethylisoxazol-4-yl)-1-(pyridazin-3-ylmethyl)pyrrolo[3,2-b]pyridin-3-yl]benzoate], the IC50 in the assay with bromodomain is less than 10000 nM; at BRD4-BD12 (1-477), less than 1 µM; in the assay on MV-4-11 cells it was less than 1 µM.
For the compound `Cc1noc(C)c1-c1cnc2c(-c3ccc(C(=O)O)cc3)cn(Cc3cccnn3)c2c1` [P-0540, 4-[6-(3,5-dimethylisoxazol-4-yl)-1-(pyridazin-3-ylmethyl)pyrrolo[3,2-b]pyridin-3-yl]benzoic acid], the 50% inhibitory concentration (IC50) is less than 10000 nM in the assay on bromodomain, less than 1 µM on BRD4-BD12 (1-477) and less than 1 µM in the assay with MV-4-11 cells.
On to `Cc1cc(-c2cnc3c(-c4cnn(CC(F)(F)F)c4)cn(CC4CCC(F)(F)CC4)c3c2)cn(C)c1=O` [P-0541, 5-[1-[(4,4-difluorocyclohexyl)methyl]-3-[1-(2,2,2-trifluoroethyl)pyrazol-4-yl]pyrrolo[3,2-b]pyridin-6-yl]-1,3-dimethyl-pyridin-2-one], for which the IC50 with bromodomain is less than 10000 nM; at BRD4-BD12 (1-477), less than 1 µM; in the assay with MV-4-11 cells, less than 1 µM.
`CCOC(=O)c1ccc(-c2cn([C@@H](C)c3ccccn3)c3cc(-c4c(C)noc4C)cnc23)cc1` [P-0542, ethyl 4-[6-(3,5-dimethylisoxazol-4-yl)-1-[(1S)-1-(2-pyridyl)ethyl]pyrrolo[3,2-b]pyridin-3-yl]benzoate]: the results for the half-maximal inhibitory concentration (IC50) in the assay with bromodomain, at BRD4-BD12 (1-477) and with MV-4-11 cells were less than 10000 nM, less than 1 µM and less than 1 µM, respectively.
In the case of `Cc1noc(C)c1-c1cnc2c(-c3ccc(C(=O)NC4CC4)nc3)cn([C@@H](C)c3ccccn3)c2c1` [P-0543, N-cyclopropyl-5-[6-(3,5-dimethylisoxazol-4-yl)-1-[(1S)-1-(2-pyridyl)ethyl]pyrrolo[3,2-b]pyridin-3-yl]pyridine-2-carboxamide], the IC50 in the assay on bromodomain is less than 10000 nM; on BRD4-BD12 (1-477) it was less than 1 µM; in the assay on MV-4-11 cells, less than 1 µM.
In the case of `COC(=O)c1ccc(-n2cc(CC3CCC(F)(F)CC3)c3cc(-c4c(C)noc4C)cnc32)cc1` [P-0544, methyl 4-[3-[(4,4-difluorocyclohexyl)methyl]-5-(3,5-dimethylisoxazol-4-yl)pyrrolo[2,3-b]pyridin-1-yl]benzoate], the IC50 in the assay with bromodomain is less than 10000 nM; on BRD4-BD12 (1-477), less than 1 µM; in the assay on MV-4-11 cells, 1 to 10 µM.
In the same order, the values of `Cc1noc(C)c1-c1cnc2[nH]cc(C(O)(c3ccccn3)c3ccccn3)c2c1` [P-0545, [5-(3,5-dimethylisoxazol-4-yl)-1H-pyrrolo[2,3-b]pyridin-3-yl]-bis(2-pyridyl)methanol] are less than 10000 nM, less than 1 µM and less than 1 µM.
On to `COC(=O)c1ccc(-c2cn(C(C)(C)c3ccccn3)c3cc(-c4c(C)noc4C)cnc23)cc1` [P-0547, methyl 4-[6-(3,5-dimethylisoxazol-4-yl)-1-[1-methyl-1-(2-pyridyl)ethyl]pyrrolo[3,2-b]pyridin-3-yl]benzoate], for which the figures for the IC50 in the assay with bromodomain, at BRD4-BD12 (1-477) and with MV-4-11 cells were less than 10000 nM, less than 1 µM and less than 1 µM, respectively.
For the compound `Cc1noc(C)c1-c1cnc2c(-c3ccc(C(=O)O)cc3)cn(C(C)(C)c3ccccn3)c2c1` [P-0548, 4-[6-(3,5-dimethylisoxazol-4-yl)-1-[1-methyl-1-(2-pyridyl)ethyl]pyrrolo[3,2-b]pyridin-3-yl]benzoic acid], the 50% inhibitory concentration (IC50) is less than 10000 nM in the assay with bromodomain, less than 1 µM on BRD4-BD12 (1-477) and less than 1 µM with MV-4-11 cells.
Turning to `Cc1noc(C)c1-c1cnc2c(I)cn(CC3CCCC3)c2c1` [P-0549], the IC50 in the assay with bromodomain is less than 10000 nM; at BRD4-BD12 (1-477), less than 1 µM; in the assay on MV-4-11 cells, less than 1 µM.
Take `COC(=O)c1ccc(-c2cn(CC3CCCC3)c3cc(-c4c(C)noc4C)cnc23)cc1` [P-0550, methyl 4-[1-(cyclopentylmethyl)-6-(3,5-dimethylisoxazol-4-yl)pyrrolo[3,2-b]pyridin-3-yl]benzoate]: the results for the 50% inhibitory concentration (IC50) in the assay on bromodomain, on BRD4-BD12 (1-477) and with MV-4-11 cells were less than 10000 nM, less than 1 µM and 1 to 10 µM, respectively.
Regarding `Cc1noc(C)c1-c1cnc2c(-c3cnn(CC(F)(F)F)c3)cn(CC3CCCC3)c2c1` [P-0551, 4-[1-(cyclopentylmethyl)-3-[1-(2,2,2-trifluoroethyl)pyrazol-4-yl]pyrrolo[3,2-b]pyridin-6-yl]-3,5-dimethyl-isoxazole], the IC50 in the assay on bromodomain was less than 10000 nM; on BRD4-BD12 (1-477), less than 1 µM; with MV-4-11 cells, less than 1 µM.
As for `Cc1noc(C)c1-c1cnc2c(-c3ccc(C(=O)O)cc3)cn(CC3CCCC3)c2c1` [P-0552, 4-[1-(cyclopentylmethyl)-6-(3,5-dimethylisoxazol-4-yl)pyrrolo[3,2-b]pyridin-3-yl]benzoic acid], the half-maximal inhibitory concentration (IC50) was less than 10000 nM in the assay on bromodomain, less than 1 µM on BRD4-BD12 (1-477) and less than 1 µM in the assay on MV-4-11 cells.
In the case of `Cc1noc(C)c1-c1cnc2c(-c3cnn(CC(F)(F)F)c3)cn(CC3CCCCC3)c2c1` [P-0553, 4-[1-(cyclohexylmethyl)-3-[1-(2,2,2-trifluoroethyl)pyrazol-4-yl]pyrrolo[3,2-b]pyridin-6-yl]-3,5-dimethyl-isoxazole], the 50% inhibitory concentration (IC50) is less than 10000 nM in the assay on bromodomain, less than 1 µM on BRD4-BD12 (1-477) and less than 1 µM with MV-4-11 cells.
With `Cc1noc(C)c1-c1cnc2c(-c3ccc(C(=O)O)cc3)cn(CC3CCCCC3)c2c1` [P-0554, 4-[1-(cyclohexylmethyl)-6-(3,5-dimethylisoxazol-4-yl)pyrrolo[3,2-b]pyridin-3-yl]benzoic acid], the values for the IC50 in the assay on bromodomain, at BRD4-BD12 (1-477) and with MV-4-11 cells were less than 10000 nM, less than 1 µM and less than 1 µM, respectively.
Take `CNS(=O)(=O)c1ccc(-c2cn([C@@H](C)c3ccccn3)c3cc(-c4c(C)noc4C)cnc23)cc1` [P-0555, 4-[6-(3,5-dimethylisoxazol-4-yl)-1-[(1S)-1-(2-pyridyl)ethyl]pyrrolo[3,2-b]pyridin-3-yl]-N-methyl-benzenesulfonamide]: the IC50 was less than 10000 nM with bromodomain, less than 1 µM on BRD4-BD12 (1-477) and less than 1 µM in the assay on MV-4-11 cells.

A word on the IC50: it is the concentration that inhibits the measured activity by half.

For the origin of these results see patent publication US10519177B2, “Heterocyclic compounds and uses thereof” (Plexxikon Inc., priority 2013, dated 2019).
